Measured values as given in PMC11264232, “Are the metal identity and stoichiometry of metal complexes important for colchicine site binding and inhibition of tubulin polymerization?” (Dalton Transactions (Cambridge, England : 2003), 2024).
Values joined by “and” are separate entries in the source; they are usually repeats but may differ in a detail not shown here. Equal values may be shown once. Marks after values point to notes of the source that are not given here.

How the values were obtained:
[1] = Reduction by glutathione (GSH), UV–vis; type: physicochemical; details: pH 7.4, glove box
Excerpt: The reduction of complexes 1, 2, 4 and 5 by glutathione (GSH), one of the major cellular reductants, was investigated at pH 7.4 by recording UV–vis spectra in a glove box.

[2] = Cyclic voltammetry in DMSO/nBu4NPF6; type: physicochemical; details: scan rate 100 mV s^−1
Description: Cyclic voltammetric experiments with 0.5 mM solutions of 1–3 in 0.1 M nBu4NPF6 (puriss quality from Fluka (Schwerte, Germany), dried under reduced pressure at 70 °C for 24 h before use) supporting electrolyte in DMSO (SeccoSolv max. 0.025% H2O, Merck) were performed under argon atmosphere using a three-electrode setup with a platinum disk or a glassy carbon disk working electrode (from Ionode, Australia), platinum wire as a counter electrode, and silver wire as a pseudo reference electrode. All potentials in voltammetric studies were quoted vs. ferricenium/ferrocene (Fc^+/Fc) redox couple. A Heka PG310USB (Lambrecht, Germany) potentiostat with a PotMaster 2.73 software package served for the potential control in voltammetric studies. In situ ultraviolet-visible-near-infrared (UV–Vis–NIR) spectroscopic and spectroelectrochemical measurements were performed on a spectrometer Avantes (Model AvaSpec-2048_14-USB2) in 1 cm quartz cuvette or the spectroelectrochemical cell kit ([…]3) with the Pt-microstructured honeycomb working electrode, purchased from Pine Research Instrumentation (Lyon, France). The cell was positioned in the CUV-UV Cuvette Holder (Ocean Optics, Ostfildern, Germany) connected to the diode-array UV–Vis–NIR spectrometer by optical fibres. UV–Vis–NIR spectra were processed using the AvaSoft 7.7 software package. Halogen and deuterium lamps were used as light sources (Avantes, Model AvaLight-DH-S-BAL, Apeldoorn, The Netherlands). EPR spectra were measured with a X-band cw-EPR spectrometers EMX and EMX plus (Bruker) at room temperature or 100 K. Spectroelectrochemical experiments were performed in a flat cell equipped with a Pt mesh working electrode using nBu4NPF6/DMSO electrolyte. Measurements in frozen solvent glass were done in MeCN/DMF 1 : 1 v/v. Complexes 4 and 5 were dissolved under ambient conditions, and complex 3 was reduced with a stoichiometric equivalent of cobaltocene in a N2 glovebox (N2 < 2 ppm, H2O < 1 ppm). The MeCN/DMF solutions were flash frozen in liquid N2 prior to transfer to the N2 flow cryostat precooled at 100 K inside the cavity of the EPR resonator. EPR spectra were analyzed with the Easyspin toolbox,[75] running on Matlab.

[3] = tested on: SN12C; assay: NCI-60 five-dose screen; type: cell-based, human; details: Renal cancer
Description: (§2) The proligands HL^1–HL^3 and their corresponding metal complexes 1–8 prepared in this study were subjected to evaluation of their anticancer potential, including selectivity towards specific types of cancer: leukemia, non-small cell lung (NSCLC), colon, central nervous system (CNS), melanoma, ovarian, renal, prostate and breast cancers, by the National Cancer Institute's Developmental Therapeutics Program. This evaluation involved the utilization of the NCI 60 human tumor cell line panel.[57]
(§3) The NCI-60 SRB assay was performed as described previously.[76] GI50 values (the concentration of the metal complex causing 50% growth inhibition), TGI value (the concentration of the complex causing 0% cell growth), and LC50 (the concentration of the complex causing 50% cell death) were interpolated from dose–response curves that were plots of percentage cell growth versus concentration of test compounds.

[4] = tested on: RPMI-8226; assay: NCI-60 five-dose screen; type: cell-based, human; details: Leukemia
Description: (§4) This evaluation involved the utilization of the NCI 60 human tumor cell line panel.[57]
as §3

[5] = tested on: SNB-19; assay: NCI-60 five-dose screen; type: cell-based, human; details: CNS cancer
Description: as §2
(§5) GI50 values (the concentration of the metal complex causing 50% growth inhibition), TGI value (the concentration of the complex causing 0% cell growth), and LC50 (the concentration of the complex causing 50% cell death) were interpolated from dose–response curves that were plots of percentage cell growth versus concentration of test compounds.

[6] = tested on: HS 578T; assay: NCI-60 five-dose screen; type: cell-based, human; details: Breast cancer
Description: as §2, §3

[7] = tested on: NCI-H522; assay: NCI-60 five-dose screen; type: cell-based, human; details: Non-Small Cell Lung Cancer
Description: as §2, §3

[8] = tested on: T-47D; assay: NCI-60 five-dose screen; type: cell-based, human; details: Breast cancer
Description: as §2, §3

[9] = tested on: OVCAR-5; assay: NCI-60 five-dose screen; type: cell-based, human; details: Ovarian cancer
Description: as §2, §3

[10] = tested on: A549 human lung adenocarcinoma cells; assay: MTT viability assay, 24 h; details: read-out: IC50 values A549; A549 cells, 24 h, MTT assay
Description: We wanted to compare the cytotoxicity of proligands HL^1–HL^3 and of their Co(III) and Fe(III) complexes 1, 2 and 4, 5 on cell lines originating from the same tissue, so human lung carcinoma A549 cells and lung fibroblast MRC-5 cells were subjected to 24 h treatments.
The biological effects of selected metal complexes (1, 2, 4 and 5) and of their proligands (HL^1, HL^2 and HL^3) were tested more extensively on A549 human lung adenocarcinoma cells and on MRC-5 human lung fibroblast cells. Both cell lines were obtained from ATCC and maintained in DMEM cell culture media containing 1.0 g L^−1 glucose (Biosera, Nuaille, France) complemented with 10% fetal bovine serum (FBS), 2 mM L-glutamine, 0.01% streptomycin and 0.005% penicillin and were cultured under standard conditions in a 37 °C incubator at 5% CO2 and 95% humidity. The viability of A549 and of MRC-5 fibroblast cells upon exposure to the selected metal–ligand complexes and ligands were evaluated by the MTT assay. For this, 10 000 cells per well were seeded into 96-well plates and left to grow. On the next day the cells were exposed to 0, 5, 10, 20, 40 or 80 μM of each compound or to an equivalent volume of DMSO for 24 h. After the treatments, cells were washed with PBS and then were incubated with 0.5 mg mL^−1 MTT reagent (Sigma-Aldrich, St Louis, Missouri, USA) for 1 h at 37 °C. Finally, 100 μL of DMSO (Molar Chemicals, Halásztelek, Hungary) was added to each well, and the absorbance of samples was measured at 570 nm using a Synergy HTX plate reader (BioTek, Winooski, Vermont, USA). The viability measurements were repeated three times using 3 independent biological replicates.

[11] = tested on: U251; assay: NCI-60 five-dose screen; type: cell-based, human; details: CNS cancer
Description: as §2, §3

[12] = tested on: MOLT-4; assay: NCI-60 five-dose screen; type: cell-based, human; details: Leukemia
Description: as §4, §3

[13] = tested on: K-562; assay: NCI-60 five-dose screen; type: cell-based, human; details: Leukemia
Description: as §4, §3

[14] = tested on: HOP-92; assay: NCI-60 five-dose screen; type: cell-based, human; details: Non-Small Cell Lung Cancer
Description: as §2, §3

[15] = tested on: MCF7; assay: NCI-60 five-dose screen; type: cell-based, human; details: Breast cancer
Description: as §5

[16] = tested on: BT-549; assay: NCI-60 five-dose screen; type: cell-based, human; details: Breast cancer
Description: as §2, §3

[17] = tested on: UO-31; assay: NCI-60 five-dose screen; type: cell-based, human; details: Renal cancer
Description: as §5

[18] = tested on: HCT-116; assay: NCI-60 five-dose screen; type: cell-based, human; details: Colon cancer
Description: as §2, §3

[19] = tested on: A549/ATCC; assay: NCI-60 five-dose screen; type: cell-based, human; details: Non-Small Cell Lung Cancer
Description: as §2, §3

[20] = tested on: CCRF-CEM; assay: NCI-60 five-dose screen; type: cell-based, human; details: Leukemia
Description: as §2, §3

[21] = tested on: HL-60(TB); assay: NCI-60 five-dose screen; type: cell-based, human; details: Leukemia
[22] = tested on: DU-145; assay: NCI-60 five-dose screen; type: cell-based, human; details: Prostate cancer
Description: as §5

[23] = tested on: purified tubulin; assay: Inhibition of tubulin polymerization; type: biochemical; details: read-out: Inhibition of tubulin polymerization IC50 ± SD
Excerpt: As a reference for comparison, combretastatin A-4 (CA-4) and Cu(HL^1)Cl2 were used.
(§1) The methods used for determination of the IC50 values for tubulin assembly and inhibition of [^3H]colchicine binding were as described previously.[77]

[24] = tested on: HCT-15; assay: NCI-60 five-dose screen; type: cell-based, human; details: Colon cancer
Description: as §2, §3

[25] = tested on: SF-539; assay: NCI-60 five-dose screen; type: cell-based, human; details: CNS cancer
Description: as §2, §5

[26] = tested on: NCI-H322M; assay: NCI-60 five-dose screen; type: cell-based, human; details: Non-Small Cell Lung Cancer
Description: as §2, §3

[27] = tested on: SK-OV-3; assay: NCI-60 five-dose screen; type: cell-based, human; details: Ovarian cancer
Description: as §2, §3

[28] = tested on: 786-0; assay: NCI-60 five-dose screen; type: cell-based, human; details: Renal cancer
Description: as §2, §3

[29] = tested on: ACHN; assay: NCI-60 five-dose screen; type: cell-based, human; details: Renal cancer
Description: as §2, §3

[30] = tested on: MDA-MB-231/ATCC; assay: NCI-60 five-dose screen; type: cell-based, human; details: Breast cancer
Description: as §2, §3

[31] = tested on: tubulin (colchicine site); assay: Inhibition of [3H]colchicine binding to tubulin; details: tubulin 0.5 μM, [3H]colchicine 5 μM
Excerpt: as §1

[32] = tested on: SNB-75; assay: NCI-60 five-dose screen; type: cell-based, human; details: CNS cancer
Description: as §2, §3

CC(=NN=C([S-])Nc1cc(C)c(O)c(C)c1)c1cccc(CN2CCOCC2)n1.CC(=NN=C([S-])Nc1cc(C)c(O)c(C)c1)c1cccc(CN2CCOCC2)n1.O=[N+]([O-])[O-].[Fe+3] [Complex 4, [Fe^III(L^2)2]NO3]
reduction by glutathione (GSH) [1]: reduction by GSH | 1st oxidation potential (peak potential Ep) [2]: 0.40^i* volts vs. Fc^+/Fc | 1st reduction potential (E1/2 or Ep) [2]: −0.35^r volts vs. Fc^+/Fc | 2nd reduction potential (E1/2 or Ep) [2]: −1.85^q volts vs. Fc^+/Fc | GI50 [3]: 2530 nM | GI50 [4]: 1810 nM | GI50 [5]: 2760 nM | GI50 [6]: 1960 nM | GI50 [7]: 2070 nM | GI50 [8]: 1900 nM | GI50 [9]: 2740 nM | IC50 [10]: 14000 to 17000 nM and 17000 nM | GI50 [11]: 1970 nM | GI50 [12]: 2720 nM | GI50 [13]: 2000 nM | GI50 [14]: 2540 nM | GI50 [15]: 1950 nM | GI50 [16]: 2190 nM | GI50 [17]: 1660 nM | GI50 [18]: 2300 nM | GI50 [19]: 2440 nM | GI50 [20]: 2220 nM | GI50 [21]: 1410 nM | GI50 [22]: 6290 nM | IC50 [23]: 3400 ± 60 nM | GI50 [24]: 2360 nM | GI50 [25]: 1960 nM | GI50 [26]: 3260 nM | GI50 [27]: 2700 nM | GI50 [28]: 9560 nM | GI50 [29]: 3100 nM | GI50 [30]: 2440 nM | Inhibition of colchicine binding, % inhibition ± SD ([31]; 5 μM inhibitor): 3.4 ± 5% | Inhibition of colchicine binding, % inhibition ± SD ([31]; 25 μM inhibitor): 17 ± 4% | GI50 [32]: 1580 nM
